| SMILES | melting point [°C] |
| --- | --- |
| CC(C)(C)OC(=O)N1CCc2nc(-c3ccc(O[C@H]4C[C@H](N5CCCCC5)C4)cc3)sc2C1 [Compound 3, tert-butyl 2-{4-[(trans-3-piperidin-1-ylcyclobutyl)oxy]phenyl}-6,7-dihydro[1,3]thiazolo[5,4-c]pyridine-5(4H)-carboxylate] | 162.3 |
| OCCN1CCc2nc(-c3ccc(O[C@H]4C[C@H](N5CCCCC5)C4)cc3)sc2C1 [Compound 37, 2-[2-{4-[(trans-3-piperidin-1-ylcyclobutyl)oxy]phenyl}-6,7-dihydro[1,3]thiazolo[5,4-c]pyridin-5(4H)-yl]ethanol] | 142 |
| OC[C@@H](O)CN1CCc2nc(-c3ccc(O[C@H]4C[C@H](N5CCCCC5)C4)cc3)sc2C1 [Compound 16, (2S)-3-[2-{4-[(trans-3-piperidin-1-ylcyclobutyl)oxy]phenyl}-6,7-dihydro[1,3]thiazolo[5,4-c]pyridin-5(4H)-yl]propane-1,2-diol] | 175 |
| CC(C)Oc1c(N2CCc3nc(-c4ccc(O[C@H]5C[C@H](N6CCCCC6)C5)cc4)sc3C2)c(=O)c1=O [Compound 56, 3-isopropoxy-4-[2-{4-[(trans-3-piperidin-1-ylcyclobutyl)oxy]phenyl}-6,7-dihydro[1,3]thiazolo[5,4-c]pyridin-5(4H)-yl]cyclobut-3-ene-1,2-dione] | 157 to 159 |
| OC[C@H](O)CN1CCc2nc(-c3ccc(O[C@H]4C[C@H](N5CCCCC5)C4)cc3)sc2C1 [Compound 17, (2R)-3-[2-{4-[(trans-3-piperidin-1-ylcyclobutyl)oxy]phenyl}-6,7-dihydro[1,3]thiazolo[5,4-c]pyridin-5(4H)-yl]propane-1,2-diol] | 172 |
| O=C(N1CCOCC1)N1CCc2nc(-c3ccc(O[C@H]4C[C@H](N5CCCCC5)C4)cc3)sc2C1 [Compound 6, 5-(morpholin-4-ylcarbonyl)-2-{4-[(trans-3-piperidin-1-ylcyclobutyl)oxy]phenyl}-4,5,6,7-tetrahydro[1,3]thiazolo[5,4-c]pyridine] | 149.3 |
| CC(=O)N1CCc2nc(-c3ccc(O[C@H]4C[C@H](N5CCCCC5)C4)cc3F)sc2C1 [Compound 36, 5-acetyl-2-{2-fluoro-4-[(trans-3-piperidin-1-ylcyclobutyl)oxy]phenyl}-4,5,6,7-tetrahydro[1,3]thiazolo[5,4-c]pyridine] | 142.8 |
| CC(=O)N1CCc2nc(-c3ccc(O[C@H]4C[C@H](N5CCC(F)(F)CC5)C4)cc3)sc2C1 [Compound 13, 5-acetyl-2-(4-{[trans-3-(4,4-difluoropiperidin-1-yl)cyclobutyl]oxy}phenyl)-4,5,6,7-tetrahydro[1,3]thiazolo[5,4-c]pyridine] | 175 |
| O=C(CCCN1CC[S+]([O-])CC1)N1CCc2nc(-c3ccc(O[C@H]4C[C@H](N5CCCCC5)C4)cc3)sc2C1 [Compound 41, 5-[4-(1-oxidothiomorpholin-4-yl)butanoyl]-2-{4-[(trans-3-piperidin-1-ylcyclobutyl)oxy]phenyl}-4,5,6,7-tetrahydro[1,3]thiazolo[5,4-c]pyridine] | 165 |
| CC(=O)N1CCc2nc(-c3ccc(O[C@H]4C[C@H](N5CCSCC5)C4)cc3)sc2C1 [Compound 22, 5-acetyl-2-{4-[(trans-3-thiomorpholin-4-ylcyclobutyl)oxy]phenyl}-4,5,6,7-tetrahydro[1,3]thiazolo[5,4-c]pyridine] | 196 |
| OCC(O)CN1CCc2nc(-c3ccc(O[C@H]4C[C@H](N5CCCCC5)C4)cc3)sc2C1 (stereo partly drawn) [Compound 15, 3-[2-{4-[(trans-3-piperidin-1-ylcyclobutyl)oxy]phenyl}-6,7-dihydro[1,3]thiazolo[5,4-c]pyridin-5(4H)-yl]propane-1,2-diol] | 169 |
| O=C(C1CCOCC1)N1CCc2nc(-c3ccc(O[C@H]4C[C@H](N5CCCCC5)C4)cc3)sc2C1 [Compound 45, 2-{4-[(trans-3-piperidin-1-ylcyclobutyl)oxy]phenyl}-5-(tetrahydro-2H-pyran-4-ylcarbonyl)-4,5,6,7-tetrahydro[1,3]thiazolo[5,4-c]pyridine] | 175 to 176 |
| CC(=O)N1CCc2nc(-c3ccc(O[C@H]4C[C@H](N5CCN(C(C)C)CC5)C4)cc3)sc2C1 [Compound 12, 5-acetyl-2-(4-{[trans-3-(4-isopropylpiperazin-1-yl)cyclobutyl]oxy}phenyl)-4,5,6,7-tetrahydro[1,3]thiazolo[5,4-c]pyridine] | 109 |

Continued, values first:

| melting point [°C] | SMILES |
| --- | --- |
| 183.4 | NC(=O)CC(=O)N1CCc2sc(-c3ccc(O[C@H]4C[C@H](N5CCCCC5)C4)cc3)nc2C1 [Compound 65, 3-oxo-3-[2-{4-[(trans-3-piperidin-1-ylcyclobutyl)oxy]phenyl}-6,7-dihydro[1,3]thiazolo[4,5-c]pyridin-5(4H)-yl]propanamide] |
| > 200 | O=C(O)COCC(=O)N1CCc2nc(-c3ccc(O[C@H]4C[C@H](N5CCCCC5)C4)cc3)sc2C1 [Compound 43, {2-oxo-2-[2-{4-[(trans-3-piperidin-1-ylcyclobutyl)oxy]phenyl}-6,7-dihydro[1,3]thiazolo[5,4-c]pyridin-5(4H)-yl]ethoxy}acetic acid] |
| 231 | NC(=O)CN1CCc2nc(-c3ccc(O[C@H]4C[C@H](N5CCCCC5)C4)cc3)sc2C1 [Compound 18, 2-[2-{4-[(trans-3-piperidin-1-ylcyclobutyl)oxy]phenyl}-6,7-dihydro[1,3]thiazolo[5,4-c]pyridin-5(4H)-yl]acetamide] |
| 135 | CC(=O)N1CCc2nc(-c3ccc(O[C@H]4C[C@H](N5CCCCCC5)C4)cc3)sc2C1 [Compound 19, 5-acetyl-2-{4-[(trans-3-azepan-1-ylcyclobutyl)oxy]phenyl}-4,5,6,7-tetrahydro[1,3]thiazolo[5,4-c]pyridine] |
| 199 | NCC(=O)N1CCc2nc(-c3ccc(O[C@H]4C[C@H](N5CCCCC5)C4)cc3)sc2C1 [Compound 9, 2-oxo-2-[2-{4-[(trans-3-piperidin-1-ylcyclobutyl)oxy]phenyl}-6,7-dihydro[1,3]thiazolo[5,4-c]pyridin-5(4H)-yl]ethanamine] |
| 214.3 | NC(=O)N1CCc2sc(-c3ccc(O[C@H]4C[C@H](N5CCCCC5)C4)cc3)nc2C1 [Compound 64, 2-{4-[(trans-3-piperidin-1-ylcyclobutyl)oxy]phenyl}-6,7-dihydro[1,3]thiazolo[4,5-c]pyridine-5(4H)-carboxamide] |
| 144 | CC(=O)NCCC(=O)N1CCc2nc(-c3ccc(O[C@H]4C[C@H](N5CCCCC5)C4)cc3)sc2C1 [Compound 42, N-{3-oxo-3-[2-{4-[(trans-3-piperidin-1-ylcyclobutyl)oxy]phenyl}-6,7-dihydro[1,3]thiazolo[5,4-c]pyridin-5(4H)-yl]propyl}acetamide] |
| 199 to 200 | NC(=O)C1(C(=O)N2CCc3nc(-c4ccc(O[C@H]5C[C@H](N6CCCCC6)C5)cc4)sc3C2)CC1 [Compound 47, 1-{[2-{4-[(trans-3-piperidin-1-ylcyclobutyl)oxy]phenyl}-6,7-dihydro[1,3]thiazolo[5,4-c]pyridin-5(4H)-yl]carbonyl}cyclopropanecarboxamide] |
| 176 | NC(=O)CC(=O)N1CCc2nc(-c3ccc(O[C@H]4C[C@H](N5CCCCC5)C4)cc3)sc2C1 [Compound 25, 3-oxo-3-[2-{4-[(trans-3-piperidin-1-ylcyclobutyl)oxy]phenyl}-6,7-dihydro[1,3]thiazolo[5,4-c]pyridin-5(4H)-yl]propanamide] |

Reference: US20100292188A1, “Compounds Comprising A Cyclobutoxy Group” (UCB PHARMA S.A., priority 2008, published 2010)
